Experimental data reported in US20230015532A1, “PHARMACEUTICAL COMPOSITION, FOR PREVENTING OR TREATING FIBROSIS, COMPRISING PHEOPHORBIDE COMPOUND AS ACTIVE INGREDIENT” (PAEAN BIOTECHNOLOGY INC., priority 2019, published 2023).

Experiments:
Format in all cases: cell-based, human
[1] = tested on: phosphorylated Smad3 and phosphorylated ERK in CCD8-Lu cells; test: Western blotting of phosphorylated proteins of TGF-β signaling (Experimental Example 5); conditions: 1 μM, 6 hours after 5 ng/ml TGF-β
Protocol: A cell-based assay experiment was performed using Western blotting assay to determine the effect of pheophorbide a on phosphorylation in the TGF-β signaling pathway. CCD8-Lu cells, which are human lung-derived fibroblasts, were cultured in the DMEM medium containing 10% FBS. About 2×10^5 cells were then inoculated into a 6 well plate, cultured for 24 hours, and subjected to the deficient condition in the DMEM medium from which FBS was removed for about 24 hours. 24 hours later, following the treatment with TGF-β at a concentration of 5 ng/ml, fibrosis of cells was induced for 6 hours. Then, the cells were treated with pheophorbide a obtained in Preparation Example 2 or the therapeutic agent for pulmonary fibrosis and further cultured for 18 hours. Then, the negative control group was treated with nothing, the positive control group was treated with TGF-β alone at a concentration of 5 ng/ml, and the experimental groups were treated with TGF-β at a concentration of 5 ng/ml and 6 hours later, with pheophorbide a at a concentration of 5 μM and nintedanib at a concentration of 1 μM, respectively. […] The separated supernatant was obtained and transferred to a new microtube and then the protein was quantified using a bicinchoninic acid assay (BCA assay) protein quantitative kit. […]

[2] = tested on: α-SMA, collagen 1A and fibronectin in CCD8-Lu cells; test: Comparison of anti-fibrotic activity by Western blotting (Experimental Example 4.2); conditions: 6 hours after 5 ng/ml TGF-β, 18 hours
Protocol: A cell-based analysis experiment was performed to analyze the anti-fibrotic activity of pheophorbide a in comparison with nintedanib and pirfenidone, which were previously approved as a therapeutic agent for pulmonary fibrosis, using Western blotting assay.
(§1) CCD8-Lu cells, which are human lung-derived fibroblasts, were cultured in the DMEM medium containing 10% FBS. About 2×10^5 cells were then inoculated into a 6 well plate, cultured for 24 hours, and subjected to the deficient condition in the DMEM medium from which FBS was removed for about 24 hours.
24 hours later, following the treatment with TGF-β at a concentration of 5 ng/ml, fibrosis of cells was induced for 6 hours. Then, the cells were treated with pheophorbide a obtained in Preparation Example 2 or the therapeutic agent for pulmonary fibrosis and further cultured for 18 hours. Then, the negative control group was treated with nothing, the positive control group was treated with TGF-β alone at a concentration of 5 ng/ml, and the experimental groups were treated with TGF-β at a concentration of 5 ng/ml and 6 hours later, with pheophorbide a at a concentration of […] or 5 μM, nintedanib at a concentration of 1 μM, and pirfenidone at a concentration of 1 mM, respectively.
After 18 hours, the culture medium was removed and the cells were washed twice by adding a PBS buffer solution, and 100 μl of RIPA buffer solution (150 mM NaCl, 1% NP-40, 0.5% Deoxycholic acid, 0.1% SDS, 50 mM Tris pH 7.5) containing a protease inhibitor was added thereto directly. 10 minutes later, the cells were recovered using a scraper and transferred to a microtube and centrifuged at about 12,000×g for 10 minutes.
The separated supernatant was obtained and transferred to a new microtube and then the protein was quantified using a bicinchoninic acid assay (BCA assay) protein quantitative kit. Each sample with the same amount of protein was subjected to electrophoresis, and then Western blotting was performed. […]

[3] = tested on: α-SMA, CTGF and NOX4 genes in CCD8-Lu cells; test: Comparison of anti-fibrotic activity by quantitative real-time PCR (Experimental Example 4.1); conditions: 6 hours after 5 ng/ml TGF-β, 18 hours, qRT-PCR
Protocol: A cell-based analysis experiment was performed to analyze the anti-fibrotic activity of pheophorbide a obtained in Preparation Example 2 in comparison with nintedanib and pirfenidone, which were previously approved as a therapeutic agent for pulmonary fibrosis, using quantitative real-time polymerase chain reaction.
as §1
24 hours later, following the treatment with TGF-β at a concentration of 5 ng/ml, fibrosis of cells was induced for 6 hours. After 6 hours, the cells were treated with pheophorbide a obtained in Preparation Example 2 or the therapeutic agent for pulmonary fibrosis and further cultured for 18 hours. […]
The supernatant was separated, added with the same volume of isopropyl alcohol and centrifuged at 12,000×g for 10 minutes. […] After drying, about 50 μl of RNAase-free purified distilled water was added thereto, and the quantity and purity of the obtained RNA was measured using a spectrophotometer. […]
After the cDNA synthesis reaction was completed, the reverse transcriptase was inactivated by heating at 72° C. for 5 minutes, and then RNase H was added to remove the […] RNA and obtain the final cDNA. Whether the expression of the alpha-smooth muscle actin gene, which is a characteristic gene of myofibroblasts, the CCN2 (or CTGF) gene, which is a characteristic gene for fibrosis, fibronectin, which is a characteristics gene for fibrosis, and the NOX4 (NADPH oxidase 4) gene known as a major regulator of the amount of reactive oxygen species was changed was observed through quantitative real-time polymerase chain reaction. The GAPDH gene was quantified together to correct differences in expression.

[4] = tested on: collagen 1A in CCD8-Lu cells; test: Comparison of anti-fibrotic activity by immunocytochemistry staining (Experimental Example 4.3); conditions: 1 μM; 6 hours after 5 ng/ml TGF-β; fluorescence intensity
Protocol: A cell-based analysis experiment was performed to analyze the anti-fibrotic activity of pheophorbide a in comparison with nintedanib and pirfenidone, which were previously approved as a therapeutic agent for pulmonary fibrosis, using immunocytochemistry staining method. CCD8-Lu cells, which are human lung-derived fibroblasts, were cultured in the DMEM medium containing 10% FBS. About 2×10^4 cells were then inoculated into a 24 well plate and cultured for 24 hours, and subjected to the deficient condition in the DMEM medium from which FBS was removed for about 24 hours. After 24 hours, following the treatment with TGF-β at a concentration of 5 ng/ml, fibrosis of cells was induced for 6 hours. After 6 hours, the cells were treated with 2.5 μM or 5 μM of pheophorbide a, 1 μM of nintedanib, or 1 mM of pirfenidone. Immunohistochemistry analysis for each sample was performed as follows. First, the sample was washed twice with a PBS buffer, and then 4% formaldehyde was added to fix for 1 hour, and anti-collagen 1A was used as a primary antibody and Alexa Fluor 488 was used as a secondary antibody. The nuclei were stained using DAPI (4,6-diamidino-2-phenylindole) and the difference in the intensity of fluorescence was analyzed using a fluorescence microscope.

Row | SMILES | expression of phosphorylated Smad3 and phosphorylated ERK induced by TGF-β [1] | expression of α-SMA, collagen 1A, and fibronectin induced by TGF-β ([2]; 1 μM) | expression of α-SMA, CTGF and NOX4 genes induced by TGF-β ([3]; 1 μM) | expression of the collagen 1A protein induced by TGF-β [4] | expression of α-SMA, collagen 1A, and fibronectin induced by TGF-β ([2]; 1 mM) | expression of α-SMA, CTGF and NOX4 genes induced by TGF-β ([3]; 1 mM)
1 | COC(=O)c1ccc2c(c1)NC(=O)/C2=C(\Nc1ccc(N(C)C(=O)CN2CCN(C)CC2)cc1)c1ccccc1 [nintedanib, reference compound] | hardly inhibited | weakly or hardly inhibited | weakly or hardly inhibited | weakly inhibited |  | 
2 | Cc1ccc(=O)n(-c2ccccc2)c1 [pirfenidone] |  |  |  |  | weakly or hardly inhibited | weakly or hardly inhibited
